Laboratory results published in US8415469B2, “Compounds and methods for kinase modulation, and indications therefor” (Plexxikon Inc., priority 2005, dated 2013).

How the values were obtained:
Assay type in all cases: biochemical
Fms = target: T1, Fms (Homo sapiens, UniProt P07333); assay: AlphaScreen kinase assay, Fms; settings: read-out: IC50, activity toward kinase Fms
T1 construct: purchased Upstate Biotechnology

Jnk1 = target: T2, Jnk1 (Homo sapiens, UniProt P45983); assay: AlphaScreen kinase assay, Jnk1; settings: read-out: IC50, activity toward kinase Jnk1
T2 construct: purchased Upstate Biotechnology
From the text: AlphaScreen assay was used to screen additional kinases. The assay is similarly dependent on the phosphorylation of a peptide substrate. In this assay, an antibody that recognizes phosphorylated substrate is bound to an acceptor bead. The peptide substrate is attached to biotin, which binds to a donor head that contains streptavidin. Thus phosphorylated substrate is bound by antibody and streptavidin, bringing the donor and acceptor heads into close proximity when kinase is not inhibited. The donor produces singlet oxygen which results in emission from the acceptor when they are in close proximity. Conversely, when kinase is inhibited, the donor and acceptor beads are not associated and the emission from the acceptor is reduced.
AlphaScreen assays were done using compounds dissolved in DMSO to a concentration of 20 mM. The compounds were diluted accordingly to the desired final concentrations in each sample well, using 1:3 serial dilution for a total of 8 concentration points. Plates were prepared such that each kinase reaction is 20 μl in 1× kinase buffer, 5% DMSO and 10 μM ATP. After incubation of the kinase reaction for 1 hour at room temperature, 5 μl of donor beads in stop buffer (50 mM EDTA in 1× kinase buffer) was added, the sample was mixed and incubated for 20 minutes at room temperature before adding 5 μl of acceptor beads in stop buffer. The samples were incubated for 60 minutes at room temperature and the signal per well was read on AlphaQuest reader.

B-Raf = target: T3, B-Raf (Homo sapiens, UniProt P15056); assay: AlphaScreen kinase assay, B-Raf; settings: read-out: IC50, activity toward kinase B-Raf
T3 construct: purchased Upstate Biotechnology

Kit = target: T4, Kit (Homo sapiens, UniProt P10721); assay: AlphaScreen kinase assay, Kit; settings: read-out: IC50, activity toward kinase Kit
T4 construct: P1332.N6 BI PTP KIT M552-K948-X COD; His6 (N); made in house; host or cells: E. coli (PTP1B co-expressed)

B-Raf V600E = target: T5, B-Raf V600E (Homo sapiens, UniProt P15056, V600E); assay: AlphaScreen kinase assay, B-Raf V600E; settings: read-out: IC50, activity toward kinase B-Raf V600E
T5 construct: P4254. pFastBacBD-CDC37 BRAF D437-K722-X, V600E; His6 with pFastBac HT leader (TEV site) (N); made in house; host or cells: Sf9 (baculovirus; chaperone CDC37 co-expressed)

c-Raf-1 = target: T6, c-Raf-1 (Homo sapiens, UniProt P04049); assay: AlphaScreen kinase assay, c-Raf-1; settings: read-out: IC50, activity toward kinase c-Raf-1
T6 construct: purchased Upstate Biotechnology

Flt1 = target: T7, Flt1 (Homo sapiens, UniProt P17948); assay: AlphaScreen kinase assay, Flt1; settings: read-out: IC50, activity toward kinase Flt1
T7 construct: P1826.pETN6 BI-PTP FLT1 M799-D1165-X WT; His6 (N); made in house; host or cells: E. coli (PTP1B co-expressed)
T7 sequence (P17948 with tags, fused parts or gaps): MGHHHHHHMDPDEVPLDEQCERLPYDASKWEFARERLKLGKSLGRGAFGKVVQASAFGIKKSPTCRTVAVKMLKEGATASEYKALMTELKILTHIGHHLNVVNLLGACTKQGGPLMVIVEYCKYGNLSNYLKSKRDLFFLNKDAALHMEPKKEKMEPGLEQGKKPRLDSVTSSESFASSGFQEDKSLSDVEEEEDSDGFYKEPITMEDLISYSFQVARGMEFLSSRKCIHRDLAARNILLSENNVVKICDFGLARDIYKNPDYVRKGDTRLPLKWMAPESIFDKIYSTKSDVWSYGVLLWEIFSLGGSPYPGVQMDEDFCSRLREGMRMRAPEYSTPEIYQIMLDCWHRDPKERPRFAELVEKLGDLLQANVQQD

FGFR1 = target: T8, FGFR1 (Homo sapiens, UniProt P11362, C488A/C584S); assay: AlphaScreen kinase assay, FGFR1; settings: read-out: IC50, activity toward kinase FGFR
T8 construct: P1351.pET N6 BI-PTP FGFR A458-E765-X C488A, C584S; made in house; host or cells: E. coli (PTP1B co-expressed)

Ret = target: T9, Ret (Homo sapiens, UniProt P07949); assay: AlphaScreen kinase assay, Ret; settings: read-out: IC50, activity toward kinase Ret
T9 construct: P1378.pET-SF BI-PTP RET H661-R1012 HIS; made in house
T9 sequence (P07949 with tags, fused parts or gaps): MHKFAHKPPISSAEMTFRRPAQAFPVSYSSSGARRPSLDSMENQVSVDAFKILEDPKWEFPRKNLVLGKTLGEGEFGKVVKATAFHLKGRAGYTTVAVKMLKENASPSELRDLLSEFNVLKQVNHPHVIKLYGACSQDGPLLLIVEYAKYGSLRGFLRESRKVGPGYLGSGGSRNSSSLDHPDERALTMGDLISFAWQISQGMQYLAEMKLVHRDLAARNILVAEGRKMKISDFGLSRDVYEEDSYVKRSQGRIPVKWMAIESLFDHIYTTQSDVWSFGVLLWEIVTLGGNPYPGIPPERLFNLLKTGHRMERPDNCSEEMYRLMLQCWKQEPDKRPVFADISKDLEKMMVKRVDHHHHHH

Jnk3 = target: T10, Jnk3 (Homo sapiens, UniProt P53779); assay: AlphaScreen kinase assay, Jnk3; settings: read-out: IC50, activity toward kinase Jnk3
T10 construct: purchased Upstate Biotechnology

Kdr = target: T11, Kdr (Homo sapiens, UniProt P35968); assay: Z'-Lyte FRET kinase assay (Invitrogen), Kdr; settings: read-out: IC50, activity toward kinase Kdr
T11 construct: purchased Invitrogen (assay run by Invitrogen)

Measured: IC50

T5 sequence (P15056 with tags, fused parts or gaps V600E): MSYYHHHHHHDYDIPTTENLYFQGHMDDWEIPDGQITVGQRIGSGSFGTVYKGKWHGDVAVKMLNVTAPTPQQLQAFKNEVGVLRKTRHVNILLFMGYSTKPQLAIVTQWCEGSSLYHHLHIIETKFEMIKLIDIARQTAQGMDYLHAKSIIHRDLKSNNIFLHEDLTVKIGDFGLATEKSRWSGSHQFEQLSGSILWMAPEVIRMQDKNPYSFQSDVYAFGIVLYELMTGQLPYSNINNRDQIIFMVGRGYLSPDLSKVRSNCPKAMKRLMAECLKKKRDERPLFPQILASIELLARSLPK
T2 sequence (P45983 whole entry): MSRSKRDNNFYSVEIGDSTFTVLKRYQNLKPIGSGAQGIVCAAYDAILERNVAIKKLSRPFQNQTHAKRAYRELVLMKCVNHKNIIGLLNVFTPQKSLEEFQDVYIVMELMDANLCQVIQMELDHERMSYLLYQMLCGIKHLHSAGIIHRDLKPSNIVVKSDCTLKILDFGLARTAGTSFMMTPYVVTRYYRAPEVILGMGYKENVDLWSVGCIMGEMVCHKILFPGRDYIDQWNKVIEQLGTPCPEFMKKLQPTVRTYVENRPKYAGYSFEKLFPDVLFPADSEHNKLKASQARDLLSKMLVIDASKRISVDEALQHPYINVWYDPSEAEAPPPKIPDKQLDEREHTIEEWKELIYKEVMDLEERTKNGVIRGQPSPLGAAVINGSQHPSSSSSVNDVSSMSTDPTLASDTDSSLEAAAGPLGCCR
T4 sequence (P10721 with tags, fused parts or gaps): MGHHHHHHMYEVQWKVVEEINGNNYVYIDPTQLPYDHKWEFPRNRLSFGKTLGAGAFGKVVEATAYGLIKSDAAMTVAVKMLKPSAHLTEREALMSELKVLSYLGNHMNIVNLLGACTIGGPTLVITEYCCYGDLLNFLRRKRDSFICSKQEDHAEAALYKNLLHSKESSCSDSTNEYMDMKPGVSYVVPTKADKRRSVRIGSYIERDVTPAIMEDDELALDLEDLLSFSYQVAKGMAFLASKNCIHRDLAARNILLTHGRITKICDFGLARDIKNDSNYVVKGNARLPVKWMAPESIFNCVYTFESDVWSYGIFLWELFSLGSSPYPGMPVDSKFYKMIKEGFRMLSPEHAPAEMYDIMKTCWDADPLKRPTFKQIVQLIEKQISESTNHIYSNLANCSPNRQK
T10 sequence (P53779 whole entry): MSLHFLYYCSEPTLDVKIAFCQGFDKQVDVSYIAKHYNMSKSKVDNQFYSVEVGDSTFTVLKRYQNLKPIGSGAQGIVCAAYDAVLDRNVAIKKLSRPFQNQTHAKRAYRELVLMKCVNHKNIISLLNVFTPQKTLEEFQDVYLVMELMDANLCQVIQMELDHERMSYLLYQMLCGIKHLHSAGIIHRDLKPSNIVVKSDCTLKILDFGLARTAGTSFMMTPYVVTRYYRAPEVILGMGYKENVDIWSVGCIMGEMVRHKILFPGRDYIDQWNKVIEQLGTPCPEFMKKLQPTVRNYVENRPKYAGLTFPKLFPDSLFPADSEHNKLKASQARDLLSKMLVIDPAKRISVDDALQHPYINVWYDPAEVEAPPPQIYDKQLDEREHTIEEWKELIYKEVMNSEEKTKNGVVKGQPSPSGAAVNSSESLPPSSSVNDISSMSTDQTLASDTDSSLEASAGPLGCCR
T6 sequence (P04049 whole entry): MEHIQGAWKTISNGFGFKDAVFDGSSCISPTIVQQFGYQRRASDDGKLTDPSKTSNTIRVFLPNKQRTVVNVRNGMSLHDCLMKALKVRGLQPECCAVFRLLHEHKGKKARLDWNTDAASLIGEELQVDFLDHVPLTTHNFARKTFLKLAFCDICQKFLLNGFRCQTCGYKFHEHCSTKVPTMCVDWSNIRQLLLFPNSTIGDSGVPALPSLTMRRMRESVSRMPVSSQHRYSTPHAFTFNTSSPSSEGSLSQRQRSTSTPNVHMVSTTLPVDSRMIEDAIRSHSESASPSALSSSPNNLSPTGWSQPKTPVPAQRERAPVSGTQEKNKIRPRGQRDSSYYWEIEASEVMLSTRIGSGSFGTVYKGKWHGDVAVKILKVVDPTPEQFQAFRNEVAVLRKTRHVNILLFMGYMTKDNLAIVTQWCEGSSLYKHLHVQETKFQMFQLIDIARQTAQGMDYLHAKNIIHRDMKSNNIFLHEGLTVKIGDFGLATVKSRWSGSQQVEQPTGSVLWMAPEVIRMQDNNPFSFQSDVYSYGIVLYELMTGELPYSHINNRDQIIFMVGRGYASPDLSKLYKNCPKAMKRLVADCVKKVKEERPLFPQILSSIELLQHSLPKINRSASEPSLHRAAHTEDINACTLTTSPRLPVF
T3 sequence (P15056 whole entry): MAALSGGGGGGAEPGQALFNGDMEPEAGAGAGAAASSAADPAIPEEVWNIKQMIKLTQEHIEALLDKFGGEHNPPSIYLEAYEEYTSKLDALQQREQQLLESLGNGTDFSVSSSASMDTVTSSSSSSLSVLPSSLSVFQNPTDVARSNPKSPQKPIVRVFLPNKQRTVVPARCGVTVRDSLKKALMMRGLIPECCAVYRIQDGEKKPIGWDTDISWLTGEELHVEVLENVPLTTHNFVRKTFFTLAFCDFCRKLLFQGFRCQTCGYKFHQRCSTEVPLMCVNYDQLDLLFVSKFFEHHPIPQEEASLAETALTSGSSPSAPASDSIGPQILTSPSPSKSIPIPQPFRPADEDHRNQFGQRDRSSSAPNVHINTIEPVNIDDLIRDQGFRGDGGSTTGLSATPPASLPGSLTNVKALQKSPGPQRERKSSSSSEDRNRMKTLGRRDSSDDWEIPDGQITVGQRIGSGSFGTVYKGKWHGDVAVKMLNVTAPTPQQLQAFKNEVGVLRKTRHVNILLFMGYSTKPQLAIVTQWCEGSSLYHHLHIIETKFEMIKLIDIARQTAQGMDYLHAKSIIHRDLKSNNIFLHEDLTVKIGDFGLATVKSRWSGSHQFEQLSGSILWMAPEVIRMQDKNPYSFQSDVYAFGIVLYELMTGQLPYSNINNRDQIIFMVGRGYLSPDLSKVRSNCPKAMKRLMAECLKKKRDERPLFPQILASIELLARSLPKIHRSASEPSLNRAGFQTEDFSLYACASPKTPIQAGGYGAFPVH
T1 sequence (P07333 20-972): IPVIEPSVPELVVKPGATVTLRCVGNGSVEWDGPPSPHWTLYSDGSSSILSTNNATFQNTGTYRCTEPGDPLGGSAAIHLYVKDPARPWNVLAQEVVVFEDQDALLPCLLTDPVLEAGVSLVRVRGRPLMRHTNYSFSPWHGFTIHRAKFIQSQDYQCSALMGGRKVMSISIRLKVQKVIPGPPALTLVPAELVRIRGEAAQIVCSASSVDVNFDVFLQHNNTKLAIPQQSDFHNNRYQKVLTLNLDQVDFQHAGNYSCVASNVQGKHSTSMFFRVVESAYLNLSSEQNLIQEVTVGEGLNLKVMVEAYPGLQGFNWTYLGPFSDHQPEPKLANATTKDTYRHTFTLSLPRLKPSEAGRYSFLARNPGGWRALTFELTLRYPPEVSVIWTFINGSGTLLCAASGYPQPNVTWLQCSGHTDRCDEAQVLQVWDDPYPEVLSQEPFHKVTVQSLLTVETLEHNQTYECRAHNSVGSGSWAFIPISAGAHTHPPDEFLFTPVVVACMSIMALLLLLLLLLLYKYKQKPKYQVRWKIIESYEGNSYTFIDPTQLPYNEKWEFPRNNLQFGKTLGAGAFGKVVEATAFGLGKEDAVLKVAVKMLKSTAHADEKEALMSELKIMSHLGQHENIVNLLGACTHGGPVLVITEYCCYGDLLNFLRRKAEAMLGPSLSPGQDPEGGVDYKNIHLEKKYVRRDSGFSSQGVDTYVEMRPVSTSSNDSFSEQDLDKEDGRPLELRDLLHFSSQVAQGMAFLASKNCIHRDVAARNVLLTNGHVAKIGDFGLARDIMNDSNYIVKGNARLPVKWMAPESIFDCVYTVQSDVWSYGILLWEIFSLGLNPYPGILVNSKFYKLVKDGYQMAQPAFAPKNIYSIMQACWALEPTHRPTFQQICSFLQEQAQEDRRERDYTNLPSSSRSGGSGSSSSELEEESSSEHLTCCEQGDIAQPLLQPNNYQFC
T8 sequence (P11362 458-765 C488A/C584S): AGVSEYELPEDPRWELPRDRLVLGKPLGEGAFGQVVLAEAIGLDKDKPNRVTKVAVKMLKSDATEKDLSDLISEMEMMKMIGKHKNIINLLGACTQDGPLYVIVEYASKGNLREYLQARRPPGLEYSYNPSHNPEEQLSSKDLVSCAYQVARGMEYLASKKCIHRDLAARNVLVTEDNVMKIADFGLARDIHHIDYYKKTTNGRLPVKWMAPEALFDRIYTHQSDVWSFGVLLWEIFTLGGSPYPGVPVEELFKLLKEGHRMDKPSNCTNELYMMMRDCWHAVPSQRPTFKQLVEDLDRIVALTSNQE

COc1ccc(NC(=O)Nc2cccc(C(=O)c3c[nH]c4ncccc34)c2)cc1OC [Compound P-1708, 1-(3,4-Dimethoxy-phenyl)-3-[3-(1H-pyrrolo[2,3-b]pyridine-3-carbonyl)-phenyl]-urea]
≤ 10 µM: Fms | Jnk1 | B-Raf | Kit | B-Raf V600E

CCCS(=O)(=O)Nc1ccc(F)c(C(=O)c2c[nH]c3ncc(-c4cccc(N5CCOCC5)c4)cc23)c1F [Compound P-1873, Propane-1-sulfonic acid {2,4-difluoro-3-[5-(3-morpholin-4-yl-phenyl)-1H-pyrrolo[2,3-b]pyridine-3-carbonyl]-phenyl}-amide]
≤ 10 µM: c-Raf-1 | Fms | Jnk1 | B-Raf | Kit | B-Raf V600E

CCCCNC(=O)Nc1cccc(C(=O)c2c[nH]c3ncc(Br)cc23)c1 [Compound P-1596, 1-[3-(5-bromo-1H-pyrrolo[2,3-b]pyridine-3-carbonyl)-phenyl]-3-butyl-urea]
≤ 10 µM: Fms | Jnk1 | Flt1 | B-Raf | B-Raf V600E

c1csc(-c2ccnc3[nH]ccc23)c1 [Compound P-0431]
≤ 10 µM: Jnk1

CCCS(=O)(=O)Nc1ccc(F)c(C(=O)c2c[nH]c3ncc(N4CCC(C)CC4)cc23)c1F [Compound P-0860, propane-1-sulfonic acid {2,4-difluoro-3-[5-(4-methyl-piperidin-1-yl)-1H-pyrrolo[2,3-b]pyridine-3-carbonyl]-phenyl}-amide]
≤ 10 µM: c-Raf-1 | Jnk1 | B-Raf | Kit | FGFR1 | B-Raf V600E

Cc1cc(C(=O)c2c[nH]c3ncc(-c4ccsc4)cc23)no1 [Compound P-0640]
≤ 10 µM: Flt1 | Ret | Kit | FGFR1 | Jnk3 | Kdr

CCCCNC(=O)Nc1ccc(F)c(C(=O)c2c[nH]c3ncc(-c4cccc(OC(F)(F)F)c4)cc23)c1 [Compound P-1660, 1-Butyl-3-{4-fluoro-3-[5-(3-trifluoromethoxy-phenyl)-1H-pyrrolo[2,3-b]pyridine-3-carbonyl]-phenyl}-urea]
≤ 10 µM: Fms | Jnk1 | B-Raf | B-Raf V600E

O=C(c1c[nH]c2ncc(-c3cccnc3)cc12)c1cccc2c1ccn2COCc1ccccc1 [Compound P-1523, (1-Benzyloxymethyl-1H-indol-4-yl)-(5-pyridin-3-yl-1H-pyrrolo[2,3-b]pyridin-3-yl)-methanone]
≤ 10 µM: Jnk1 | Flt1

OC(c1ccc(OCc2nc3ccccc3[nH]2)c(F)c1)c1c[nH]c2ncccc12 (centres unmarked) [Compound P-1898]
≤ 10 µM: Jnk1

CCCS(=O)(=O)Nc1ccc(F)c(C(=O)c2c[nH]c3ncc(-c4ccc(OC)nc4)cc23)c1F [Compound P-1879, Propane-1-sulfonic acid {2,4-difluoro-3-[5-(6-methoxy-pyridin-3-yl)-1H-pyrrolo[2,3-b]pyridine-3-carbonyl]-phenyl}-amide]
≤ 10 µM: c-Raf-1 | Fms | Jnk1 | B-Raf | Kit | B-Raf V600E

CCCS(=O)(=O)Nc1cccc(C(=O)c2c[nH]c3ncc(-c4ccc(F)cc4)cc23)c1 [Compound P-1639]
≤ 10 µM: Fms | Jnk1 | B-Raf | B-Raf V600E

CCCS(=O)(=O)Nc1cccc(C(=O)c2c[nH]c3ncc(-c4cccnc4)cc23)c1C [Compound P-1631]
≤ 10 µM: Fms | Jnk1 | B-Raf | B-Raf V600E

CCCS(=O)(=O)Nc1cccc(C(=O)c2c[nH]c3ncc(-c4cccnc4)cc23)c1 [Compound P-1638]
≤ 10 µM: Fms | Jnk1 | B-Raf | B-Raf V600E

COc1ccc(NC(=O)Nc2cccc(C(=O)c3c[nH]c4ncc(-c5cccnc5)cc34)c2)cc1OC [Compound P-1725, 1-(3,4-Dimethoxy-phenyl)-3-[3-(5-pyridin-3-yl-1H-pyrrolo[2,3-b]pyridine-3-carbonyl)-phenyl]-urea]
≤ 10 µM: Fms | Jnk1 | B-Raf | B-Raf V600E

O=C(c1ccc(Cl)cc1Cl)c1c[nH]c2ncc(-c3cccnc3)cc12 [Compound P-1556]
≤ 10 µM: Fms | Jnk1 | Flt1 | B-Raf | FGFR1 | B-Raf V600E

CCCS(=O)(=O)Nc1ccc(F)c(C(=O)c2c[nH]c3ncc(-c4cccc(C(N)=O)c4)cc23)c1F [Compound P-1549, 3-{3-[2,6-Difluoro-3-(propane-1-sulfonylamino)-benzoyl]-1H-pyrrolo[2,3-b]pyridin-5-yl}-benzamide]
not listed: c-Raf-1 | Ret | Jnk3 | Kdr
≤ 10 µM: all other assays above

Cc1ccc(S(=O)(=O)Nc2ccc(F)c(C(=O)c3c[nH]c4ncc(Cl)cc34)c2F)cc1 [Compound P-1842, N-[3-(5-Chloro-1H-pyrrolo[2,3-b]pyridine-3-carbonyl)-2,4-difluoro-phenyl]-4-methyl-benzenesulfonamide]
≤ 10 µM: Jnk1 | B-Raf | B-Raf V600E

O=C(Nc1cccc(C(=O)c2c[nH]c3ncccc23)c1)Nc1ccc(C(F)(F)F)cc1Cl [Compound P-1713, 1-(2-Chloro-4-trifluoromethyl-phenyl)-3-[3-(1H-pyrrolo[2,3-b]pyridine-3-carbonyl)-phenyl]-urea]
≤ 10 µM: c-Raf-1 | Fms | B-Raf | Kit | Jnk3 | B-Raf V600E

CCCCNC(=O)Nc1ccc(F)c(C(=O)c2c[nH]c3ncc(Br)cc23)c1 [Compound P-1637, 1-[3-(5-Bromo-1H-pyrrolo[2,3-b]pyridine-3-carbonyl)-4-fluoro-phenyl]-3-butyl-urea]
≤ 10 µM: Fms | Jnk1 | B-Raf | B-Raf V600E

CC(C)c1ccc(S(=O)(=O)Nc2ccc(F)c(C(=O)c3c[nH]c4ncc(Cl)cc34)c2F)cc1 [Compound P-1839, N-[3-(5-chloro-1H-pyrrolo[2,3-b]pyridine-3-carbonyl)-2,4-difluoro-phenyl]-4-isopropyl-benzenesulfonamide]
≤ 10 µM: c-Raf-1 | Fms | Jnk1 | B-Raf | Kit | B-Raf V600E

Oc1ccc(Cc2c[nH]c3ncc(-c4ccsc4)cc23)cc1O [Compound P-0683]
not listed: Fms | Jnk1 | c-Raf-1
≤ 10 µM: all other assays above

O=C(NCc1ccccc1)Nc1cccc(C(=O)c2c[nH]c3ncc(Br)cc23)c1 [Compound P-1553, 1-Benzyl-3-[3-(5-bromo-1H-pyrrolo[2,3-b]pyridine-3-carbonyl)-phenyl]-urea]
≤ 10 µM: Fms | Jnk1 | Flt1 | B-Raf | Kit | B-Raf V600E
